Laboratory results: BindingDB's records for patent US20230312522 (Sage Therapeutics, 2023)

Target: Cholesterol 24-hydroxylase (Homo sapiens, UniProt Q9Y6A2)
Test: CYP46A1 Enzyme Assay
Procedure: Briefly, in a 384-well plate format, 10 uL per well of an enzyme-substrate mixture of CYP46A1 (5 uM final concentration) and Testosterone ([…]) were dispensed to wells containing test compound. For CYP46A1 titration, 5 uL per well of serially diluted CYP46A1 (concentrations including 10 uM, 5 uM, and 2.5 uM) and Testosterone ([…]) were dispensed. For Testosterone titration, 5 uL per well of serially diluted Testosterone (concentrations including 10 uM, 5 uM, and 2.5 uM) and CYP46A1 (concentration of 5 uM) were dispensed. The plates were centrifuged at 1000 rpm for 30 seconds, and then sealed and incubated at 37 C. for 30 minutes. The plate was removed from the incubator, and then 10 uL per well of NADPH-generating system were dispensed to initiate the reaction. The plates were incubated at 37 C. for 15 minutes, added with 80 uL per well of 100% methanol consisting 1 ng/ml diclofenac as internal standard, and then transferred for HPLC-MS.

Sequence of Cholesterol 24-hydroxylase (Q9Y6A2 whole entry): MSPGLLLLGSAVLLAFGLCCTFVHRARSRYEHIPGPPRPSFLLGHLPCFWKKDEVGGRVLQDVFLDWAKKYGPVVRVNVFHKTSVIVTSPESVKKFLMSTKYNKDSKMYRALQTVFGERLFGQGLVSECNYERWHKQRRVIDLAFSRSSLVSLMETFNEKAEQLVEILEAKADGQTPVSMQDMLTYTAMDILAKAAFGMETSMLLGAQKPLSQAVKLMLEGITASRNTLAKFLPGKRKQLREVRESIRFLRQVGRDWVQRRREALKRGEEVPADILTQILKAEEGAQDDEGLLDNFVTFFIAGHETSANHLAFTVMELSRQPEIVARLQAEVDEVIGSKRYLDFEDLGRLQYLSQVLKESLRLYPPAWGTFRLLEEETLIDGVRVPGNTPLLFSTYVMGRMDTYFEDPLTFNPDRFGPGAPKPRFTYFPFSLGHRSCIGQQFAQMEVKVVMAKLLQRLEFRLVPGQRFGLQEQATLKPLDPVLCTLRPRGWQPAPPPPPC

Row | Compound | IC50
1 | O=C(c1cccnc1-c1ccncn1)N1CCC(F)(Cc2cc(F)cc(F)c2)CC1 [US20230312522, Compound 20] | < 100 nM
2 | O=C(c1cccnc1-c1ccncn1)N1CCC(F)(Cc2cccc(C(F)(F)F)n2)CC1 [US20230312522, Compound 24] | < 100 nM
3 | O=C(c1cccnc1-c1ccncn1)N1CCC(F)(Cc2ccc(Cl)cn2)CC1 [US20230312522, Compound 18] | < 100 nM
4 | C[C@H](c1ccc(C(F)(F)F)cc1)C1(F)CCN(C(=O)c2cccnc2-c2ccncn2)CC1 [US20230312522, Compound 33] | < 100 nM
5 | C[C@@H](c1ccc(C(F)(F)F)cc1)C1(F)CCN(C(=O)c2cccnc2-c2ccncn2)CC1 [US20230312522, Compound 34] | < 100 nM
6 | O=C(c1cccnc1-c1ccncn1)N1CCC(F)(c2ccccc2)CC1 [US20230312522, Compound 8] | > 1000 nM
7 | C[C@H](c1cc(F)cc(F)c1)C1(F)CCN(C(=O)c2cccnc2-c2ccncn2)CC1 [US20230312522, Compound 31] | < 100 nM
8 | O=C(c1cccnc1-c1ccncn1)N1CCC(F)(Cc2ccc(C(F)(F)F)cn2)CC1 [US20230312522, Compound 22] | < 100 nM
9 | C[C@@H](c1cc(F)cc(F)c1)C1(F)CCN(C(=O)c2cccnc2-c2ccncn2)CC1 [US20230312522, Compound 32] | < 100 nM
10 | O=C(c1cccnc1-c1ccncn1)N1CCC(F)(Cc2ccc(C(F)(F)F)cc2F)CC1 [US20230312522, Compound 28] | < 100 nM
11 | O=C(c1cccnc1-c1ccncn1)N1CCC(F)(Cc2ccc(C(F)(F)F)nc2)CC1 [US20230312522, Compound 23] | < 100 nM
12 | O=C(c1cccnc1-c1ccncn1)N1CCC(F)([C@H](O)c2ccc(C(F)(F)F)cc2)CC1 [US20230312522, Compound 13] | < 100 nM
13 | O=C(c1cccnc1-c1ccncn1)N1CCC(F)(Cc2c(F)cc(F)cc2F)CC1 [US20230312522, Compound 26] | < 100 nM
14 | O=C(c1cccnc1-c1ccncn1)N1CCC(F)([C@@H](O)c2ccc(C(F)(F)F)cc2)CC1 [US20230312522, Compound 14] | < 100 nM
15 | O=C(c1cccnc1-c1ccncn1)N1CCC(F)(Cc2ccc(F)cc2F)CC1 [US20230312522, Compound 19] | < 100 nM
16 | O=C(c1cccnc1-c1ccncn1)N1CCC(F)(Cc2ccc(Cl)cc2)CC1 [US20230312522, Compound 29] | < 100 nM

Now from value to molecule:

Row | IC50 | Compound
17 | < 100 nM | O=C(c1cccnc1-c1ccncc1)N1CCC(F)(Cc2ccc(Cl)nc2)CC1 [US20230312522, Compound 47]
18 | > 1000 nM | O=C(c1cccnc1-c1ccncn1)N1CCC(F)(Cc2ncc(C(F)(F)F)cn2)CC1 [US20230312522, Compound 56]
19 | < 100 nM | Cc1cnc(CC2(F)CCN(C(=O)c3cccnc3-c3ccncc3)CC2)cn1 [US20230312522, Compound 52]
20 | < 100 nM | O=C(c1cccnc1-c1ccncn1)N1CCC(F)(Cc2ccc(CF)nc2)CC1 [US20230312522, Compound 51]
21 | < 100 nM | O=C(c1cccnc1-c1ccncn1)N1CCC(F)(Cc2ccc(Cl)nc2)CC1 [US20230312522, Compound 46]
22 | < 100 nM | O=C(c1cccnc1-c1ccncc1)N1CCC(F)(Cc2ccc(C(F)(F)F)nc2)CC1 [US20230312522, Compound 35]
23 | > 1000 nM | O=C(c1cccnc1-c1ccncc1)N1CCC(F)(Cc2cnccn2)CC1 [US20230312522, Compound 45]
24 | < 100 nM | Cc1ccc(CC2(F)CCN(C(=O)c3cccnc3-c3ccncc3)CC2)nc1 [US20230312522, Compound 43]
25 | < 100 nM | O=C(c1cccnc1-c1ccncc1)N1CCC(F)(Cc2ccc(CF)nc2)CC1 [US20230312522, Compound 54]
26 | < 100 nM | O=C(c1cccnc1-c1ccncc1)N1CCC(F)(Cc2ccc(C(F)F)nc2)CC1 [US20230312522, Compound 55]
27 | < 100 nM | O=C(c1cccnc1-c1ccncc1)N1CCC(F)(Cc2ccc(Cl)cn2)CC1 [US20230312522, Compound 38]
28 | < 100 nM | Cc1ccc(CC2(F)CCN(C(=O)c3cccnc3-c3ccncc3)CC2)cn1 [US20230312522, Compound 57]
29 | < 100 nM | O=C(c1cccnc1-c1ccncn1)N1CCC(F)(Cc2cc(C(F)(F)F)c(Cl)cn2)CC1 [US20230312522, Compound 39]
